Reference: paper PMC2763345 (PLoS Pathogens, 2009)
pIC50: −log10 of the molar value. Converted amounts (≈) assume the structure as drawn. Where two headings read alike, the source gives them in different places.

Tests used:
[1] = test system: M. tuberculosis H37Rv-GFP in Raw264.7 macrophages; assay: microbe, parasite or virus in culture; assay type: cell-based, Mycobacterium tuberculosis; conditions: for MIC: Mycobacterium tuberculosis, H37RV
[2] = test system: M. tuberculosis H37Rv-GFP; assay: microbe, parasite or virus in culture; assay type: cell-based, Mycobacterium tuberculosis; conditions: for MIC: Mycobacterium tuberculosis, H37RV
M. smegmatis mc2 155 = assay type: cell-based
M. tuberculosis H37Rv [3] = assay type: cell-based
C. jeikeium = assay type: cell-based, Corynebacterium jeikeium
BCG Wild Type = assay: microbe, parasite or virus in culture; assay type: cell-based, M. bovis BCG
[4] = test system: M. smegmatis mc2 155 Wild Type; assay: microbe, parasite or virus in culture; assay type: cell-based
[5] = test system: Candida albicans, C. glabrata, C. parapsilosis; assay type: cell-based, Fungi
in vitro = conditions: C57BL/6, mouse
M. tuberculosis H37Ra [6] = assay type: cell-based
M. tuberculosis H37Rv [7] = assay type: cell-based; remark: listed apart in the source
[8] = test system: Acinetobacter baumannii, Escherichia coli, Enterobacter cloacae, E. aerogenes, Klebsiella oxytoca, Pseudomonas aeruginosa, Salmonella enteridis, Vibrio mimicus; assay type: cell-based, Gram-negative bacteria
C. striatum = assay type: cell-based, Corynebacterium striatum
M. tuberculosis H37Ra [9] = assay type: cell-based; remark: listed apart in the source
[10] = test system: Staphylococcus aureus, S. epidermis, S. capitis, S. xylosus, Micrococcus luteus, Listeria innocua, Lactobacillus gallinarum, group G Streptococcus …; assay type: cell-based, Gram-positive bacteria
BCG Pasteur-Tokyo = assay type: cell-based, M. bovis BCG
[11] = test system: M. tuberculosis H37Rv-GFP in human primary macrophages; assay type: cell-based, Mycobacterium tuberculosis
[12] = test system: M. tuberculosis H37Rv-GFP in mouse bone marrow-derived macrophages; assay type: cell-based, Mycobacterium tuberculosis
[13] = 120 h, read-out: Intracellular macrophage growth MIC (µM)
[14] = 120 h, read-out: Intracellular macrophage growth MIC (µg/mL)
[15] = read-out: In vitro broth growth MIC (µM)
[16] = read-out: In vitro broth growth MIC (µg/mL)
[17] = Mycobacterium tuberculosis variant bovis BCG, BCG
[18] = Mycolicibacterium smegmatis, MC2155

Structure (SMILES)	MIC [1, 13] [µM]	MIC [1, 14] [µg/mL]	Intracellular macrophage growth Cell toxicity (Raw264.7 macrophages; mouse) [µM]	MIC [2, 15] [µM]	MIC [2, 16] [µg/mL]	MIC ([1]; read-out: MIC Intracellular) [µM]	MIC ([2]; read-out: MIC Extracellular) [µM]	further results
CC(=O)O[C@H]1C[C@@]2(C)[C@@H](C[C@@H](O)[C@H]3[C@@]4(C)CC[C@@H](O)[C@@H](C)[C@@H]4CC[C@@]32C)/C1=C(\CCC=C(C)C)C(=O)O [Fusidic Acid]	20	10	>20	1	0.5			
C[C@H]1COc2c(N3CCN(C)CC3)c(F)cc3c(=O)c(C(=O)O)cn1c23 [Levofloxacin]	> 20	> 10	>20	2.5	0.9			
O=C(NCCOCc1cccc(Cl)c1)c1cc([N+](=O)[O-])cc([N+](=O)[O-])c1 [Compound 1]						1	0.2	
[H]/N=C(/N)N[C@H]1[C@H](O)[C@@H](O)[C@H](O[C@@H]2O[C@@H](C)[C@](O)(C=O)[C@H]2O[C@@H]2O[C@@H](CO)[C@H](O)[C@@H](O)[C@@H]2NC)[C@@H](N/C(N)=N\[H])[C@@H]1O [Streptomycin]	> 35	> 20	>35	1.5	0.9			
NNC(=O)c1ccncc1 [Isoniazid]	1.2	0.16	>150	1.2	0.16			differences in MIC between the two assays (broth and intracellular) [1]: No major differences
NCC[C@H](O)C(=O)N[C@@H]1C[C@H](N)[C@@H](O[C@H]2O[C@H](CN)[C@@H](O)[C@H](O)[C@H]2O)[C@H](O)[C@H]1O[C@H]1O[C@H](CO)[C@@H](O)[C@H](N)[C@H]1O [Amikacin]	> 150	> 20	>150	0.07	0.04			
COc1ccc(O[C@H]2CCN(C(=O)c3cc([N+](=O)[O-])cc([N+](=O)[O-])c3)C2)cc1 [Compound 10-(S)]						20	0.08	
O=C(NCCOCc1ccccc1)c1cc([N+](=O)[O-])cc([N+](=O)[O-])c1 [Compound 7, N-(2-(benzyloxy)ethyl)-3,5-dinitrobenzamide]						0.2	0.2	Range of MICs for multiple strains (M. smegmatis mc2 155): 0.4 µM; Range of MICs for multiple strains (M. tuberculosis H37Rv [3]): 0.2 µM; Range of MICs for multiple strains (C. jeikeium): 2.7 µM; MIC (BCG Wild Type; [17]): 0.25 µg/mL (≈ 0.724 µM); MIC [4, 18]: 0.25 µg/mL (≈ 0.724 µM); Range of MICs for multiple strains [5]: > 250 µM; pIC50 (in vitro): 4.30; Range of MICs for multiple strains (M. tuberculosis H37Ra [6]): 0.2 µM; bactericidal effect on M. tuberculosis (M. tuberculosis H37Rv [7]): time-dependent; Range of MICs for multiple strains [8]: > 250 µM; Range of MICs for multiple strains (C. striatum): 27 µM; effect on the synthesis of the arabinan domains of arabinogalactan (AG) and lipoarabinomannan (LAM) (M. tuberculosis H37Ra [9]): clear-cut effect; effects on the biosynthesis of fatty acids, mycolic acids and/or other lipids (M. tuberculosis H37Ra [9]): no effects; Range of MICs for multiple strains [10]: > 250 µM; Range of MICs for multiple strains (BCG Pasteur-Tokyo): 0.2 to 0.7 µM
O=C(NCCOCc1cccc(Cl)c1)c1cccc([N+](=O)[O-])c1 [Compound 4]						> 20	> 20	
COC(=O)c1ccc(O[C@H]2CCN(C(=O)c3cc([N+](=O)[O-])cc([N+](=O)[O-])c3)C2)cc1 [Compound 11-(S)]						> 20	0.08	
NC(=O)c1c(NC(=O)C2CC2)sc2c1CCCC2 [AX20017]								Intracellular macrophage growth MIC (µM) [1]: >20 µM; Intracellular macrophage growth MIC (µg/mL) [1]: >5 µg/mL; Intracellular macrophage growth Cell toxicity (Raw264.7 macrophages): >20 µM; In vitro broth growth MIC (µM) [2]: >20 µM; In vitro broth growth MIC (µg/mL) [2]: >5 µg/mL
O=C(NCCOCc1ccccc1F)c1cc([N+](=O)[O-])cc([N+](=O)[O-])c1 [Compound 5]						0.2	0.08	
NC(=O)c1cnccn1 [Pyrazinamide]	> 150	> 20	>150	> 150	> 20			
O=C(NCCOCc1cccc(Cl)c1)c1cc(NO)cc([N+](=O)[O-])c1 [Compound 3]						> 20	> 20	
O=C(NCCOCc1cccc(C(F)(F)F)c1)c1cc([N+](=O)[O-])cc([N+](=O)[O-])c1 [Compound 6]						0.2	0.2	
CO[C@H]1/C=C/O[C@@]2(C)Oc3c(C)c(O)c4c(c3C2=O)C2=NC3(CCN(CC(C)C)CC3)NC2=C(NC(=O)/C(C)=C\C=C\[C@H](C)[C@H](O)[C@@H](C)[C@@H](O)[C@@H](C)[C@H](OC(C)=O)[C@@H]1C)C4=O [Rifabutin]	0.11	0.1	>20	0.01	0.01			
COc1ccc(OCCNC(=O)c2cc([N+](=O)[O-])cc([N+](=O)[O-])c2)cc1 [Compound 8, N-(2-(4-methoxyphenoxy)ethyl)-3,5-dinitrobenzamide]						0.2	0.2	Range of MICs for multiple strains (M. smegmatis mc2 155): 0.4 µM; Range of MICs for multiple strains (M. tuberculosis H37Rv [3]): 0.2 µM; Range of MICs for multiple strains (C. jeikeium): 2.7 µM; MIC (BCG Wild Type; [17]): 0.075 µg/mL (≈ 0.208 µM); MIC [4, 18]: 0.15 µg/mL (≈ 0.415 µM); Range of MICs for multiple strains [5]: > 250 µM; pIC50 (in vitro): 4.30; Range of MICs for multiple strains (M. tuberculosis H37Ra [6]): 0.2 µM; bactericidal effect on M. tuberculosis (M. tuberculosis H37Rv [7]): time-dependent; Range of MICs for multiple strains [8]: > 250 µM; decrease in the number of CFUs [11]: More than a ten-fold decrease; decrease in the number of CFUs [12]: More than a ten-fold decrease; Range of MICs for multiple strains (C. striatum): 27 µM; effect on the synthesis of the arabinan domains of arabinogalactan (AG) and lipoarabinomannan (LAM) (M. tuberculosis H37Ra [9]): clear-cut effect; effects on the biosynthesis of fatty acids, mycolic acids and/or other lipids (M. tuberculosis H37Ra [9]): no effects; Range of MICs for multiple strains [10]: > 250 µM; Range of MICs for multiple strains (BCG Pasteur-Tokyo): 0.2 µM
CC[C@@H](CO)NCCN[C@@H](CC)CO [Ethambutol]	4.9	1	>20	4.9	1			differences in MIC between the two assays (broth and intracellular) [1]: No major differences
CCc1cc(C(N)=S)ccn1 [Ethionamide]	6	1	120	6	1			differences in MIC between the two assays (broth and intracellular) [1]: No major differences
COc1ccc(O[C@H]2CCCN(C(=O)c3cc([N+](=O)[O-])cc([N+](=O)[O-])c3)C2)cc1 [Compound 12-(S)]						20	6	
Nc1cc(C(=O)NCCOCc2cccc(Cl)c2)cc([N+](=O)[O-])c1 [Compound 2]						> 20	> 20	
O=[N+]([O-])c1cn2c(n1)OC[C@@H](OCc1ccc(OC(F)(F)F)cc1)C2 [PA-824]	0.22	0.08	>20	0.22	0.08			differences in MIC between the two assays (broth and intracellular) [1]: No major differences
CO[C@H]1/C=C/O[C@@]2(C)Oc3c(C)c(O)c4c(O)c(c(/C=N/N5CCN(C)CC5)c(O)c4c3C2=O)NC(=O)/C(C)=C\C=C\[C@H](C)[C@H](O)[C@@H](C)[C@@H](O)[C@@H](C)[C@H](OC(C)=O)[C@@H]1C [Rifampin]	2.9	2.4	24	0.01	0.01			MIC (BCG Wild Type): 0.31 µg/mL (≈ 0.377 µM); MIC [4]: 0.31 µg/mL (≈ 0.377 µM)
O=C(NCCOc1ccccc1F)c1cc([N+](=O)[O-])cc([N+](=O)[O-])c1 [Compound 9]						0.7	0.2	
